Measurements from patent US20130236568A1, “PHOSPHAPLATINS HAVING ANTI-ANGIOGENIC, ANTI-METASTATIC, AND PRO-APOPTOTIC PROPERTIES AND USES THEREOF” (Ohio University, priority 2011, published 2013).

Columns and labels:
Assay type in all cases: cell-based, human
VEGFR2 gene = test: Quantitative real-time PCR, VEGFR2 gene expression in A2780/C30 cells
Description: (§1) Evaluations of selected gene expressions in Human Umbilical Vein Endothelial Cells (HUVEC) and Human Ovarian Cancer Cells by quantitative reverse transcriptase polymerase chain reaction (PCR)
(§2) Quantitative real-time PCR experiments were performed to estimate the expression of a selection of targeted genes. HUVEC cells (Lonza Walkersville, Frederick, Md.) were cultured on 0.1% gelatin-coated petri dishes by following standard protocols recommended by the vendor in a humidified incubator by maintaining 5% CO2 at 37° C. Human epithelial ovarian cancer cells (A2780) and cisplatin-resistant cells (A2780/C30) were cultured in RPMI 1640 with or without cisplatin (7 μM) and pyrodach-4 (180 μM) for 0, 3, 12 and 24 hours. […] HUVECs were treated with or without cisplatin (7 μM) or pyrodach-4 (90 or 180 μM) for various durations ranging from 1 hr. to 6 hrs.
(§3) Both treated and untreated cancer cells were maintained in RPMI 1640 medium with 10% fetal bovine serum, 2 μmol L-glutamine, 100 units/mL penicillin-streptomycin and 0.25 units/mL insulin solution, at 37° C. with 5% CO2. RNA was isolated from both the treated and untreated cells. […] The quantity and purity of RNA were determined by UV spectroscopy (NanoDrop 2000 Thermo Scientific, Wilmington, Del.). A minimum absorbance ratio index (ratio of the absorbance measured at 260 nm over that at 280 nm) of 1.9 was used as an acceptable purity. […] The target gene was labeled with a blue dye (FAM, absorbance: 494 nm, emission: 518 nm) while the reference gene was tagged with a green dye (VIC, absorbance: 538 nm, emission: 554 nm). The cDNA concentrations were selected such that the threshold cycle (Ct) values for the target genes were between 17 and 32, most sensitive for the fluorescence detection by ABI StepOnePlus™ instrument used for the measurements.
(§4) The threshold cycle number (Ct), the point at which the fluorescence of the qPCR reaction just exceeds the threshold fluorescence of the detection system, was determined. […]

PTEN [1] = test: Quantitative real-time PCR, PTEN expression in A2780 cells; details: for Normalized expression of PTEN: control = 1.0
Description: as §1, §2, §3, §4

BAX [2] = test: Expression of key genes with and without p53 inhibitor (Table 3): BAX; details: positive = manifold increase, negative = decrease vs untreated cells
Description: as §2
as §3, with “The cDNA concentrations were selected such that the threshold cycle (Ct) values for the target genes were between 17 and 32, most sensitive for the fluorescence detection by ABI StepOnePlus™ instrument used for the measurements.” left out

Caspase 3 = test: Expression of key genes with and without p53 inhibitor (Table 3): Caspase 3; details: positive = manifold increase, negative = decrease vs untreated cells
Description: as §2
as §3, with “The cDNA concentrations were selected such that the threshold cycle (Ct) values for the target genes were between 17 and 32, most sensitive for the fluorescence detection by ABI StepOnePlus™ instrument used for the measurements.” left out

Fas = test: Expression of key genes with and without p53 inhibitor (Table 3): Fas; details: positive = manifold increase, negative = decrease vs untreated cells
Description: as §2
as §3, with “The cDNA concentrations were selected such that the threshold cycle (Ct) values for the target genes were between 17 and 32, most sensitive for the fluorescence detection by ABI StepOnePlus™ instrument used for the measurements.” left out

FasL = test: Expression of key genes with and without p53 inhibitor (Table 3): FasL; details: positive = manifold increase, negative = decrease vs untreated cells
Description: as §2
as §3, with “The cDNA concentrations were selected such that the threshold cycle (Ct) values for the target genes were between 17 and 32, most sensitive for the fluorescence detection by ABI StepOnePlus™ instrument used for the measurements.” left out

PTEN [3] = test: Expression of key genes with and without p53 inhibitor (Table 3): PTEN; details: positive = manifold increase, negative = decrease vs untreated cells
Description: as §2
as §3, with “The cDNA concentrations were selected such that the threshold cycle (Ct) values for the target genes were between 17 and 32, most sensitive for the fluorescence detection by ABI StepOnePlus™ instrument used for the measurements.” left out

BAX [4] = test: Quantitative real-time PCR, Bax expression in HUVEC; details: HUVEC treated with pyrodach-4
Description: as §1
Quantitative real-time PCR experiments were performed to estimate the expression of a selection of targeted genes. HUVEC cells (Lonza Walkersville, Frederick, Md.) were cultured on 0.1% gelatin-coated petri dishes by following standard protocols recommended by the vendor in a humidified incubator by maintaining 5% CO2 at 37° C. […]
as §3, with “CO2.” for “CO2. RNA was isolated from both the treated and untreated cells.”, “The cDNA concentrations were selected such that the threshold cycle (Ct) values for the target genes were between 17 and 32, most sensitive for the fluorescence detection by ABI StepOnePlus™ instrument used for the measurements.” left out
as §4

E-cadherin = test: Immunofluorescent labeling of E-cadherin protein in A2780 cells; details: 24 hr treatment at or below IC50 concentration
Description: Left panels show E-cadherin bound to its antibody labeled with FITC (green). The middle and right panels represent nuclei stained with Prolong® Gold Antifade Reagent with 4′-6-Diamidino-2-phenylindole (DAPI, a nuclear stain) and merger of the left and middle panels (see Example 5 below for details).
Cells were grown on multi-chamber slide systems (Lab-Tek™, Nunc, Denmark). These cells were treated with pyrodach-4 at or below IC50 concentrations for 24 hours. Untreated cells were used as a control while treated and untreated cells without primary antibody labeling were used as negative controls. […] The Fas and E-cadherin proteins were detected via direct labeling using anti-Fas (FITC labeled, Santa Cruz Biotechnology, Inc., Santa Cruz, Calif.) and anti-E-cadherin (FITC labeled, BD Transduction Laboratories, Franklin Lakes, N.J.) fluorescently tagged antibodies. Other proteins, p53, BAX and PUMA were detected indirectly with fluorescently labeled secondary antibodies (Texas Red-conjugated anti-mouse IgG for p53 and Fluorescein-conjugated anti-rabbit IgG for BAX and PUMA, obtained from Vector Labs, Burlingame, Calif.) at 1:1000 dilution. […] The stain was cured for 24 hours before fluorescence images were acquired. […]

## trans-(±)-1,2-cyclohexanediamine-trans-dihydroxo(pyrophosphato) platinum(IV) [Pyrodach-4]
VEGFR2 gene; A2780/C30 (cisplatin-resistant), positive = manifold increase, negative = relative decrease vs untreated cells, cisplatin 7 μM, pyrodach-4 180 μM
  Normalized expression of VEGFR2 gene: −2.0
VEGFR2 gene; cisplatin-resistant human ovarian cancer cells
  Suppression of VEGFR-2 gene expression: ≤ 50%
PTEN [1]
  Expression of the PTEN gene compared to control: 5.5 fold
PTEN [1]; pyrodach-4 alone
  Normalized expression of PTEN: 5.5
PTEN [1]; pyrodach-4 in the presence of p53 inhibitor PTF-α
  Normalized expression of PTEN: 0.8
BAX [2]; Pyrodach-4 + PFT-α (p53 inhibitor)
  Expression of BAX: 1.0
BAX [2]; Pyrodach-4 treatment only, cell line not given
  Expression of BAX: 2.8
Caspase 3; Pyrodach-4 + PFT-α
  Expression of Caspase 3: −1.2
Caspase 3; Pyrodach-4 treatment only
  Expression of Caspase 3: 2.6
Fas; Pyrodach-4 + PFT-α
  Expression of Fas: 5.5
Fas; Pyrodach-4 treatment only
  Expression of Fas: 11.0
FasL; Pyrodach-4 + PFT-α
  Expression of FasL: undetectable
FasL; Pyrodach-4 treatment only
  Expression of FasL: 4.6
PTEN [3]; Pyrodach-4 + PFT-α
  Expression of PTEN: −1.3
PTEN [3]; Pyrodach-4 treatment only
  Expression of PTEN: 5.5
BAX [4]
  Over-expression of Bax: 2-3 fold
E-cadherin
  Diffusivity of E-cadherin (immunofluorescence): reduces the diffusivity
  Expression of E-cadherin protein (immunofluorescence): increases the expression
